This is an account of results in patent US8907098B2, “Inhibitors of sphingosine kinase” (MERCK PATENT GmbH, priority 2009, dated 2014).

pIC50: −log10 of the molar value.

modified SphK1, sequence (Q9NYA1 whole entry): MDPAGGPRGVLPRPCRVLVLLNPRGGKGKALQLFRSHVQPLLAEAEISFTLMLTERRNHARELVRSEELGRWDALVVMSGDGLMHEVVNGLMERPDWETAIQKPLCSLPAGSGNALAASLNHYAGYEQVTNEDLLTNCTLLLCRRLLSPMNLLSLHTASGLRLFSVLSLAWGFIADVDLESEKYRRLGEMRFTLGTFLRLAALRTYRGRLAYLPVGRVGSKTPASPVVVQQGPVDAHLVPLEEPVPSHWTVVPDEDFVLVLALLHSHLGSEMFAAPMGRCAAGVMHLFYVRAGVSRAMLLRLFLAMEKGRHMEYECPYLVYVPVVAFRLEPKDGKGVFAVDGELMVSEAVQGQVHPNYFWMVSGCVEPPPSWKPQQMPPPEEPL

In the assay the target is modified SphK1 (Homo sapiens, UniProt Q9NYA1). Put plainly: SphK1 biochemical kinase assay (384-well flashplate). Conditions: IC50 ranges; 5 nM modified SphK1, 1 μM ATP, 30° C., 120 min; read-out: SphK1 Inhibition IC50. The procedure:
The kinase assay is carried out as a 384-well flashplate assay.
5 nM modified SphK1, 800 nM omega-biotinyl-D-erythro-sphingosine and 1 μM ATP (with 0.3 μCi of ^33P-ATP/well) are incubated in a total volume of 50 μl (25 mM HEPES, 5 mM MgCl2, 1 mM dithiothreitol, 0.01% of Brij35, 0.1% of BSA (fatty acid-free), pH 7.4) without or with test substance (5-10 concentrations) at 30° C. for 120 min. The reaction is terminated using 25 μl of 200 mM EDTA solution, filtered off with suction at room temperature after 30 min, and the cavities are washed 3 times with 100 μl of 0.9% NaCl solution. The non-specific proportion of the kinase reaction (blank) is determined using 0.5 mM NaCl. Radioactivity is measured in topcount. IC50 values are calculated using RS1.
By pIC50 is commonly meant the negative decadic logarithm of the IC50, by convention in mol/L. Turning to `CC1(C)CCC(C)(C)c2cc(-c3csc(N4CCC(N5CCC(N)C5)CC4)n3)ccc21` (stereo not shown), the pIC50 was 6.00 to 7.00. Under `CC(=O)N1CCC(c2csc(-c3ccc4c(c3)C(C)(C)CCC4(C)C)n2)CC1` stands 6.00 to 7.00; under `CC1(C)CCCc2cc(-c3csc(N4CCC(N)CC4)n3)ccc21`, 6.00 to 7.00. On to `CC1(C)CCC(C)(C)c2cc(-c3csc(N4CCCC(C(=O)NCCCO)C4)n3)ccc21` (stereo not shown), for which the pIC50 is under 6.00. Regarding `CC1(C)CCC(C)(C)c2cc(-c3csc(N4CCCC(C(=O)NCCO)C4)n3)ccc21` (stereo not shown), the pIC50 is 6.00 to 7.00.

Turning to `CC1(C)CCC(C)(C)c2cc(-c3csc(N4CCC(C(=O)NCCO)CC4)n3)ccc21`, the negative logarithm of the IC50 (pIC50) is under 6.00.

For `CC1(C)CCC(C)(C)c2cc(-c3csc(N4CCC(NCCO)CC4)n3)ccc21`, the pIC50 is over 7.00. For the compound `CC1(C)CCC(C)(C)c2cc(-c3csc(N4CCC(CCN)CC4)n3)ccc21`, the pIC50 was 6.00 to 7.00. In the case of `CC1(C)CCC(C)(C)c2cc(-c3csc(N4CCCC(CCO)C4)n3)ccc21` (stereo not shown), the pIC50 was 6.00 to 7.00. Under `CC1(C)CCC(C)(C)c2cc(-c3csc(C4CCCN(CCO)C4)n3)ccc21` (stereo not shown) stands 6.00 to 7.00; under `CC1(C)CCC(C)(C)c2cc(-c3csc(N4CCC(N5CCN(CCO)CC5)CC4)n3)ccc21`, 6.00 to 7.00; under `CC1(C)CCC(C)(C)c2cc(-c3csc(N4CCN(CCO)CC4)n3)ccc21`, 6.00 to 7.00. Turning to `CC1(C)CCC(C)(C)c2cc(-c3csc(N4CCN(C5CCCCC5O)CC4)n3)ccc21` (stereo not shown), the pIC50 is 6.00 to 7.00.

Consider `CC1(C)CCCc2cc(-c3csc(N4CCC(N(CCO)CCO)CC4)n3)ccc21`, for which the pIC50 was 6.00 to 7.00. Under `CC1(C)CCC(C)(C)c2cc(-c3csc(N4CC[C@@H](NCCO)C4)n3)ccc21` stands under 6.00; under `CC1(C)CCC(C)(C)c2cc(-c3csc(N4CCC(NCCCO)CC4)n3)ccc21`, over 7.00. Under `CC1(C)CCC(C)(C)c2cc(-c3csc(N4CCC(NCC(O)CO)CC4)n3)ccc21` (stereo not shown) stands over 7.00; under `CC1(C)CCC(C)(C)c2cc(-c3csc(N4CCCC(CCCO)C4)n3)ccc21` (stereo not shown), under 6.00; under `CC1(C)CCC(C)(C)c2cc(-c3csc(N4CCC(CCCO)CC4)n3)ccc21`, under 6.00. As for `CC1(C)CCC(C)(C)c2cc(-c3csc(C4CCCN(CCCO)C4)n3)ccc21` (stereo not shown), the pIC50 is under 6.00. As to `CC1(C)CCC(C)(C)c2cc(-c3csc(N4CCN(CCCO)CC4)n3)ccc21`, the pIC50 was 6.00 to 7.00. As for `CC1(C)CCC(C)(C)c2cc(-c3csc(N4CCN(CC(O)CO)CC4)n3)ccc21` (stereo not shown), the pIC50 was 6.00 to 7.00. `CC1(C)CCC(C)(C)c2cc(-c3csc(N4CC[C@H](NCCCO)C4)n3)ccc21`: the pIC50 is under 6.00.

Consider `CC1(C)CCC(C)(C)c2cc(-c3csc(N4CCC(N5CCOCC5)CC4)n3)ccc21`, for which the pIC50 was under 6.00. Turning to `CC1(C)CCC(C)(C)c2cc(-c3csc(C4CCCN(CCCCO)C4)n3)ccc21` (stereo not shown), the pIC50 is under 6.00. `CC1(C)CCCc2cc(-c3csc(N4CCN(CCCCO)CC4)n3)ccc21`: the pIC50 is 6.00 to 7.00. Consider `CC1(C)CCC(C)(C)c2cc(-c3csc(N4CCN(CCCCO)CC4)n3)ccc21`, for which the pIC50 is 6.00 to 7.00. Under `CC1(C)CCC(C)(C)c2cc(-c3csc(C4CCC(N)CC4)n3)ccc21` (stereo not shown) stands 6.00 to 7.00.

For `CC1(C)CCCc2cc(-c3csc(C4CCN(CCCCCO)C4)n3)ccc21` (stereo not shown), the pIC50 is 6.00 to 7.00.

On to `CC1(C)CCC(C)(C)c2cc(-c3csc(C4CCCN(CCCCCO)C4)n3)ccc21` (stereo not shown), for which the pIC50 is under 6.00.

For the compound `CC1(C)CCC(C)(C)c2cc(-c3csc(N4CCN(CCCCCO)CC4)n3)ccc21`, the pIC50 was 6.00 to 7.00. Under `CC1(C)CCC(C)(C)c2cc(-c3csc(N4CCC(CN)CC4)n3)ccc21` stands 6.00 to 7.00; under `CC(=O)NC1CCN(C2CCN(c3nc(-c4ccc5c(c4)C(C)(C)CCC5(C)C)cs3)CC2)C1` (stereo not shown), over 7.00; under `CC1(C)CCC(C)(C)c2cc(-c3csc(N4CC[C@@H](N)C4)n3)ccc21`, 6.00 to 7.00. Consider `CC1(C)CCC(C)(C)c2cc(-c3csc(N4CCC(NC[C@@H](N)CO)CC4)n3)ccc21`, for which the pIC50 is 6.00 to 7.00. For `CC1(C)CCC(C)(C)c2cc(-c3csc(N4CCC(NC[C@@H](O)CO)CC4)n3)ccc21`, the pIC50 is 6.00 to 7.00.

As for `CC1(C)CCC(C)(C)c2cc(-c3csc(N4CC[C@H](N)C4)n3)ccc21`, the pIC50 was 6.00 to 7.00. Under `CC1(C)CCC(C)(C)c2cc(-c3csc(N4CCC(NC[C@H](O)CO)CC4)n3)ccc21` stands over 7.00; under `CN1CCN(C2CCN(c3nc(-c4ccc5c(c4)C(C)(C)CCC5(C)C)cs3)CC2)CC1` [1-Methyl-4-{1-[4-(5,5,8,8-tetramethyl-5,6,7,8-tetrahydronaphthalen-2-yl)thiazol-2-yl]piperidin-4-yl}piperazine], 6.00 to 7.00. Under `CC1(C)CCc2cc(-c3csc(N4CCC(N)CC4)n3)ccc21` [1-[4-(1,1-Dimethylindan-5-yl)thiazol-2-yl]piperidin-4-ylamine] stands 6.00 to 7.00. Under `CC1(C)CCC(C)(C)c2cc(-c3csc(N4CCC(C5CCNCC5)CC4)n3)ccc21` [1-[4-(5,5,8,8-Tetramethyl-5,6,7,8-tetrahydronaphthalen-2-yl)thiazol-2-yl]-4,4′-bipiperidinyl] stands 6.00 to 7.00; under `CC1(C)CCC(C)(C)c2cc(-c3csc(N4CCNCC4)n3)ccc21` [1-[4-(5,5,8,8-Tetramethyl-5,6,7,8-tetrahydronaphthalen-2-yl)thiazol-2-yl]piperazine], 6.00 to 7.00; under `CC1(C)CCC(C)(C)c2cc(-c3csc(N4CCC(N)CC4)n3)ccc21` [1-[4-(5,5,8,8-Tetramethyl-5,6,7,8-tetrahydronaphthalen-2-yl)thiazol-2-yl]piperidin-4-ylamine], 6.00 to 7.00. As to `CCOC(=O)C1CCN(c2nc(-c3ccc4c(c3)C(C)(C)CCC4(C)C)cs2)CC1` [1-[4-(5,5,8,8-Tetramethyl-5,6,7,8-tetrahydronaphthalen-2-yl)thiazol-2-yl]piperidine-4-carboxylic acid ethyl ester], the pIC50 is under 6.00. Under `CC1(C)CCC(C)(C)c2cc(-c3csc(N4CCC(N)C4)n3)ccc21` (stereo not shown) [1-[4-(5,5,8,8-Tetramethyl-5,6,7,8-tetrahydronaphthalen-2-yl)thiazol-2-yl]pyrrolidin-3-ylamine] stands 6.00 to 7.00. Under `CC1(C)CCCc2cc(-c3csc(N4CCNCC4)n3)ccc21` [1-[4-(5,5-Dimethyl-5,6,7,8-tetrahydronaphthalen-2-yl)thiazol-2-yl]-piperazine] stands 6.00 to 7.00; under `CC1(C)CCC(C)(C)c2cc(-c3csc(N4CCC(N5CCCC(O)C5)CC4)n3)ccc21` (stereo not shown) [1′-[4-(5,5,8,8-Tetramethyl-5,6,7,8-tetrahydronaphthalen-2-yl)thiazol-2-yl]-1,4′-bipiperidinyl-3-ol], 6.00 to 7.00. Under `CC1(C)CCC(C)(C)c2cc(-c3csc(N4CCC(N(CCO)CCO)CC4)n3)ccc21` [2-((2-Hydroxyethyl)-{1-[4-(5,5,8,8-tetramethyl-5,6,7,8-tetrahydronaphthalen-2-yl)thiazol-2-yl]piperidin-4-yl}amino)ethanol] stands 6.00 to 7.00; under `CC1(C)CCC(C)(C)c2cc(-c3csc(C4CCNC4)n3)ccc21` (stereo not shown) [2-Pyrrolidin-3-yl-4-(5,5,8,8-tetramethyl-5,6,7,8-tetrahydronaphthalen-2-yl)thiazole], 6.00 to 7.00; under `CC1(C)CCc2cc(-c3csc(N4CCC(NCCO)CC4)n3)ccc21` [2-{1-[4-(1,1-Dimethylindan-5-yl)thiazol-2-yl]piperidin-4-ylamino}ethanol], 6.00 to 7.00. With `CC1(C)CCC(C)(C)c2cc(-c3csc(N4CCC5(CCNCC5)CC4)n3)ccc21` [3-[4-(5,5,8,8-Tetramethyl-5,6,7,8-tetrahydronaphthalen-2-yl)thiazol-2-yl]-3,9-diazaspiro[5.5]undecane], the negative-log IC50 (pIC50) is 6.00 to 7.00. For `CC1(C)CCC(C)(C)c2cc(-c3csc(C4CCCNC4)n3)ccc21` (stereo not shown) [3-[4-(5,5,8,8-Tetramethyl-5,6,7,8-tetrahydronaphthalen-2-yl)thiazol-2-yl]piperidine], the pIC50 was 6.00 to 7.00.

As for `CC1(C)CCc2cc(-c3csc(N4CCC(NCCCO)CC4)n3)ccc21` [3-{1-[4-(1,1-Dimethylindan-5-yl)thiazol-2-yl]piperidin-4-ylamino}propan-1-ol], the pIC50 is 6.00 to 7.00. Under `CC1(C)CCC(C)(C)c2cc(-c3csc(N4CCC(CCN5CCCC5)CC4)n3)ccc21` [4-(2-Pyrrolidin-1-ylethyl)-1-[4-(5,5,8,8-tetramethyl-5,6,7,8-tetrahydronaphthalen-2-yl)thiazol-2-yl]piperidine] stands 6.00 to 7.00. Under `CC1(C)CCCc2cc(-c3csc(C4CCNC4)n3)ccc21` (stereo not shown) [4-(5,5-Dimethyl-5,6,7,8-tetrahydronaphthalen-2-yl)-2-pyrrolidin-3-yl-thiazole] stands 6.00 to 7.00; under `CC1(C)CCC(C)(C)c2cc(-c3ncc(C4CCNCC4)o3)ccc21` [4-[2-(5,5,8,8-Tetramethyl-5,6,7,8-tetrahydronaphthalen-2-yl)oxazol-5-yl]piperidine], under 6.00. On to `CC1(C)CCC(C)(C)c2cc(-c3nc(C4CCNCC4)cs3)ccc21` [4-[2-(5,5,8,8-Tetramethyl-5,6,7,8-tetrahydronaphthalen-2-yl)thiazol-4-yl]piperidine], for which the pIC50 is 6.00 to 7.00. Under `CC1(C)CCCc2cc(-c3csc(C4CCN(CCCCO)C4)n3)ccc21` (stereo not shown) [4-{3-[4-(5,5-Dimethyl-5,6,7,8-tetrahydronaphthalen-2-yl)thiazol-2-yl]-pyrrolidin-1-yl}butan-1-ol] stands 6.00 to 7.00.
